# According to publication PMC9271048, “Probing strigolactone perception mechanisms with rationally designed small-molecule agonists stimulating germination of root parasitic weeds” (Nature Communications, 2022):
# System: PaKAI2s (5 KAI2 protein homologs in P. aegyptiaca)
# Experiment: YLG-based competition assay on KAI2 protein homologs of P. aegyptiaca
# Assay type: biochemical, Phelipanche aegyptiaca
# Details: KAI2C; YLG competition; Supplementary Fig. 27; read-out: IC50, replicate 1
# From the text: In P. aegyptiaca, 5 KAI2s have been proposed as the SL receptors for the regulation of seed germination. […] The high sequence similarity may explain the consistency of these compounds in inducing germination in both S. hermonthica and P. aegyptiaca.
# (§1) The excitation and emission wavelengths of YLG are 480 and 520 nm, respectively. We used a fluorescence spectrophotometer (CARY Eclipse) to detect the fluorescence intensity change of YLG during the enzymatic hydrolysis assay process. All the testing compounds and YLG were dissolved in DMSO and prepared as stock solutions just before use. […] The changes of fluorescence at 520 nm of each well were recorded every 1 min for 30 min. Using the reaction mixture without adding enzyme and tested compounds as the background control. After subtracting the background hydrolysis, a linear fluorescence increase in 8 min was used for further inspection. The IC50 values were determined via fitting relative inhibition percentages with the varying concentrations of compounds in Microsoft Excel.
# Supplementary Fig. 27. Binding of compounds 4a, (R)- and (S)-4a, and 4g-i to the HTL proteins in S. hermonthica and KAI2 protein homologs in P. aegyptiaca. In the competitive inhibitory activity assay, YLG (3 µM) was used as the fluorogenic substrate. Error bar indicates SD (n = 3 biologically independent experiments).
# (1 picture or pasted object on this page, not shown here)
row,Structure (SMILES),IC50
1,"CC1=C[C@H](O/C=C2/C(=O)O[C@@H]3c4ccccc4C[C@H]23)OC1=O (racemic) [rac-GR24, reference compound]",7310 nM

# Same assay, conditions: KAI2C; YLG competition; Supplementary Fig. 27; read-out: IC50, replicate 2
row,Structure (SMILES),IC50
1,"CC1=C[C@H](O/C=C2/C(=O)O[C@@H]3c4ccccc4C[C@H]23)OC1=O (racemic) [rac-GR24, reference compound]",5690 nM

# Same assay, conditions: KAI2C; YLG competition; Supplementary Fig. 27; read-out: IC50, replicate 3
row,Structure (SMILES),IC50
1,"CC1=C[C@H](O/C=C2/C(=O)O[C@@H]3c4ccccc4C[C@H]23)OC1=O (racemic) [rac-GR24, reference compound]",6560 nM

# Same assay, conditions: KAI2C; average of 3 replicates; Supplementary Fig. 27; read-out: IC50, average
row,Structure (SMILES),IC50
1,"CC1=C[C@H](O/C=C2/C(=O)O[C@@H]3c4ccccc4C[C@H]23)OC1=O (racemic) [rac-GR24, reference compound]",6520 nM

# Same assay, conditions: KAI2d1; YLG competition; Supplementary Fig. 27; read-out: IC50, replicate 1
row,Structure (SMILES),IC50
1,"CC1=C[C@H](O/C=C2/C(=O)O[C@@H]3c4ccccc4C[C@H]23)OC1=O (racemic) [rac-GR24, reference compound]",1780 nM

# Same assay, conditions: KAI2d1; YLG competition; Supplementary Fig. 27; read-out: IC50, replicate 2
row,Structure (SMILES),IC50
1,"CC1=C[C@H](O/C=C2/C(=O)O[C@@H]3c4ccccc4C[C@H]23)OC1=O (racemic) [rac-GR24, reference compound]",2830 nM

# Same assay, conditions: KAI2d1; YLG competition; Supplementary Fig. 27; read-out: IC50, replicate 3
row,Structure (SMILES),IC50
1,"CC1=C[C@H](O/C=C2/C(=O)O[C@@H]3c4ccccc4C[C@H]23)OC1=O (racemic) [rac-GR24, reference compound]",2390 nM

# Same assay, conditions: KAI2d1; average of 3 replicates; Supplementary Fig. 27; read-out: IC50, average
row,Structure (SMILES),IC50
1,"CC1=C[C@H](O/C=C2/C(=O)O[C@@H]3c4ccccc4C[C@H]23)OC1=O (racemic) [rac-GR24, reference compound]",2330 nM

# Same assay, conditions: KAI2d2; YLG competition; Supplementary Fig. 27; read-out: IC50, replicate 1
row,Structure (SMILES),IC50
1,"CC1=C[C@H](O/C=C2/C(=O)O[C@@H]3c4ccccc4C[C@H]23)OC1=O (racemic) [rac-GR24, reference compound]",5140 nM

# Same assay, conditions: KAI2d2; YLG competition; Supplementary Fig. 27; read-out: IC50, replicate 2
row,Structure (SMILES),IC50
1,"CC1=C[C@H](O/C=C2/C(=O)O[C@@H]3c4ccccc4C[C@H]23)OC1=O (racemic) [rac-GR24, reference compound]",2890 nM

# Same assay, conditions: KAI2d2; YLG competition; Supplementary Fig. 27; read-out: IC50, replicate 3
row,Structure (SMILES),IC50
1,"CC1=C[C@H](O/C=C2/C(=O)O[C@@H]3c4ccccc4C[C@H]23)OC1=O (racemic) [rac-GR24, reference compound]",3460 nM

# Same assay, conditions: KAI2d2; average of 3 replicates; Supplementary Fig. 27; read-out: IC50, average
row,Structure (SMILES),IC50
1,"CC1=C[C@H](O/C=C2/C(=O)O[C@@H]3c4ccccc4C[C@H]23)OC1=O (racemic) [rac-GR24, reference compound]",3830 nM

# Same assay, conditions: KAI2d3; YLG competition; Supplementary Fig. 27; read-out: IC50, replicate 1
row,Structure (SMILES),IC50
1,"CC1=C[C@H](O/C=C2/C(=O)O[C@@H]3c4ccccc4C[C@H]23)OC1=O (racemic) [rac-GR24, reference compound]",2270 nM

# Same assay, conditions: KAI2d3; YLG competition; Supplementary Fig. 27; read-out: IC50, replicate 2
row,Structure (SMILES),IC50
1,"CC1=C[C@H](O/C=C2/C(=O)O[C@@H]3c4ccccc4C[C@H]23)OC1=O (racemic) [rac-GR24, reference compound]",2040 nM

# Same assay, conditions: KAI2d3; YLG competition; Supplementary Fig. 27; read-out: IC50, replicate 3
row,Structure (SMILES),IC50
1,"CC1=C[C@H](O/C=C2/C(=O)O[C@@H]3c4ccccc4C[C@H]23)OC1=O (racemic) [rac-GR24, reference compound]",1550 nM

# Same assay, conditions: KAI2d3; average of 3 replicates; Supplementary Fig. 27; read-out: IC50, average
row,Structure (SMILES),IC50
1,"CC1=C[C@H](O/C=C2/C(=O)O[C@@H]3c4ccccc4C[C@H]23)OC1=O (racemic) [rac-GR24, reference compound]",1950 nM

# Same assay, conditions: KAI2d4; YLG competition; Supplementary Fig. 27; read-out: IC50, replicate 1
row,Structure (SMILES),IC50
1,"CC1=C[C@H](O/C=C2/C(=O)O[C@@H]3c4ccccc4C[C@H]23)OC1=O (racemic) [rac-GR24, reference compound]",6410 nM

# Same assay, conditions: KAI2d4; YLG competition; Supplementary Fig. 27; read-out: IC50, replicate 2
row,Structure (SMILES),IC50
1,"CC1=C[C@H](O/C=C2/C(=O)O[C@@H]3c4ccccc4C[C@H]23)OC1=O (racemic) [rac-GR24, reference compound]",5830 nM

# Same assay, conditions: KAI2d4; YLG competition; Supplementary Fig. 27; read-out: IC50, replicate 3
row,Structure (SMILES),IC50
1,"CC1=C[C@H](O/C=C2/C(=O)O[C@@H]3c4ccccc4C[C@H]23)OC1=O (racemic) [rac-GR24, reference compound]",7250 nM

# Same assay, conditions: KAI2d4; average of 3 replicates; Supplementary Fig. 27; read-out: IC50, average
row,Structure (SMILES),IC50
1,"CC1=C[C@H](O/C=C2/C(=O)O[C@@H]3c4ccccc4C[C@H]23)OC1=O (racemic) [rac-GR24, reference compound]",6500 nM

# Target: T1, ShHTL7 (Striga hermonthica, UniProt A0A0M3PNA2)
# Experiment: Competitive inhibition of ShHTL7 with Yoshimulactone Green (YLG) as substrate
# Assay type: biochemical
# Details: ShHTL7; YLG competition; Supplementary Fig. 27; read-out: IC50, replicate 1
# Method: Based on the structural feature of the lead compound 2h, we selected three regions to perform further modification (Supplementary Fig. 6), to try to further improve bioactivity. Insertion of a carbonyl group between the bicyclo[2.2.1]hept-5-en-2-yl group and the piperazine ring was detrimental to binding affinity (Supplementary Fig. 6, region A). Removal of an oxygen atom in region B was found unfavorable to binding affinity as well. Therefore, we focused on modifying the benzene ring (region C) for 2h. A series of compounds with different groups at region C was synthesized (Supplementary Scheme 1). […] As SPR just measures the binding ability, another independent assay by using Yoshimulactone Green (YLG) as the fluorescent substrate was performed to determine the half-maximal inhibitory concentration (IC50) of these compounds against ShHTL7[22].
# as §1
# T1 sequence (A0A0M3PNA2 entry or part of it): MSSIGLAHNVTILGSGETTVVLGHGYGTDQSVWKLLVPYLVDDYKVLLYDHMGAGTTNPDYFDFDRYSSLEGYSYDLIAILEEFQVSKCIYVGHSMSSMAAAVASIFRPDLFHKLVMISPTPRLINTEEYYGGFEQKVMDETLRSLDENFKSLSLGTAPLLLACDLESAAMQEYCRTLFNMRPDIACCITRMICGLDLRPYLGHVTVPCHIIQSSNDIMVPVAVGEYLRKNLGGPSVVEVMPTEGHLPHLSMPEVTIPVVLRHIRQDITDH
row,Structure (SMILES),IC50
1,"CC1=C[C@H](O/C=C2/C(=O)O[C@@H]3c4ccccc4C[C@H]23)OC1=O (racemic) [rac-GR24, reference compound]",633 nM

# Same assay, conditions: ShHTL7; YLG competition; Supplementary Fig. 27; read-out: IC50, replicate 2
row,Structure (SMILES),IC50
1,"CC1=C[C@H](O/C=C2/C(=O)O[C@@H]3c4ccccc4C[C@H]23)OC1=O (racemic) [rac-GR24, reference compound]",842 nM

# Same assay, conditions: ShHTL7; YLG competition; Supplementary Fig. 27; read-out: IC50, replicate 3
row,Structure (SMILES),IC50
1,"CC1=C[C@H](O/C=C2/C(=O)O[C@@H]3c4ccccc4C[C@H]23)OC1=O (racemic) [rac-GR24, reference compound]",614 nM

# Same assay, conditions: ShHTL7; average of 3 replicates; Supplementary Fig. 27; read-out: IC50, average
row,Structure (SMILES),IC50
1,"CC1=C[C@H](O/C=C2/C(=O)O[C@@H]3c4ccccc4C[C@H]23)OC1=O (racemic) [rac-GR24, reference compound]",696 nM

# Same assay, conditions: YLG used as the substrate; means ± SD, n = 3; read-out: IC50 (Supplementary Table 1)
row,Structure (SMILES),IC50
1,"CC1=C[C@H](O/C=C2/C(=O)O[C@@H]3c4ccccc4C[C@H]23)OC1=O (racemic) [rac-GR24, reference compound]",730 ± 110 nM

# Target: T2, AtD14 (Arabidopsis thaliana, UniProt Q9SQR3)
# T2 construct: His tag; made in house; host or cells: E. coli BL21
# T2 sequence (Q9SQR3 1-267): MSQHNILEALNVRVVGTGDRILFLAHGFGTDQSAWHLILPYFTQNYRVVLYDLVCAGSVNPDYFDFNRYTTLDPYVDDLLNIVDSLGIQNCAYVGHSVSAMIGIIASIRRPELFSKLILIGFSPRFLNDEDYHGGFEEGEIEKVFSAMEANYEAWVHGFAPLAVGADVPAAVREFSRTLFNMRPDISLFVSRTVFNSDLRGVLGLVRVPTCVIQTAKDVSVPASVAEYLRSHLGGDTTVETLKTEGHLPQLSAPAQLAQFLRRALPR
# Experiment: Competitive inhibition of AtD14 with YLG as substrate
# Assay type: biochemical
# Details: source data of Fig. 4b and Supplementary Fig. 14; read-out: Competitive AtD14 inhibitory activity IC50, source data average
# Method: as §1
row,Structure (SMILES),IC50
1,"CC1=C[C@H](O/C=C2/C(=O)O[C@@H]3c4ccccc4C[C@H]23)OC1=O (racemic) [rac-GR24, reference compound]",6540 nM

# Target: T1, ShHTL7
# Experiment: biochemical
# Assay type: binding
# Details: Supplementary Table 7; binding affinities between ShHTL7 and agonists by SPR; read-out: KD/μM
# Method: We used a sensitive, high-throughput Surface plasmon resonance (SPR) method to examine the binding affinities of the 51 candidates to the recombinant ShHTL7 protein, which was immobilized on the CM5 sensor chip. rac-GR24 was used as a positive control.
# The interactions of small molecules with recombinant ShHTL7 were evaluated using the Biacore T200 system (GE Healthcare, USA) at 25 °C[47]. The purified ShHTL7 protein was immobilized on a CM5 sensor chip using the standard amine coupling procedure. […] PBS-P (10 mM phosphate buffer, 2.7 mM KCl, 137 mM NaCl, 0.05% Surfactant P20) containing 0.5% DMSO was used as the running buffer. For the screening experiments, candidates with different structures at 50 μM in the running buffer were injected individually at a flow rate of 30 μL min^−1. For binding affinity studies, compounds with different concentrations in running buffer were used. During the experiments, both the contact and dissociation times were set as 1 min. Data analysis was performed using the Biacore Evaluation Software (T200 Version 2.0). The affinity values (KD) were obtained by the kinetics analysis or the steady-state affinity method.
row,Structure (SMILES),Kd
1,"CC1=C[C@H](O/C=C2/C(=O)O[C@@H]3c4ccccc4C[C@H]23)OC1=O (racemic) [rac-GR24, reference compound]",0.93 ± 0.17 µM

# Same assay, conditions: recombinant ShHTL7 immobilized on CM5 chip, 25 °C; read-out: KD (SPR)
row,Structure (SMILES),Kd
1,"CC1=C[C@H](O/C=C2/C(=O)O[C@@H]3c4ccccc4C[C@H]23)OC1=O (racemic) [rac-GR24, reference compound]",~0.93 µM
